Data published in ChEMBL document CHEMBL5724914, “Linking interpersonal differences in gut microbiota composition and drug biotransformation activity” (2024).

Columns and labels:
[1] = human gut metagenome, 24 h, 2 µM
[2] = human gut metagenome, 24 h, 2 µM; remark: listed apart in the source
[3] = (§1) The drug is tested on Z-009 corresponding to pig gut metagenome with ENA study accession number: PRJEB37062 and ENA sample accession number: ERS12561809 for biotransformation under anaerobic condition. The drug concentrations were measured over 9 timepoints collected between 0 and 24 hours of incubation by liquid-chromatography-coupled mass spectrometry (LC–MS); settings: 2 µM
[4] = human gut metagenome, 24 h, 2 µM; remark: listed apart in the source
[5] = as §1, with “WLS-039” for “Z-009”, “human” for “pig”, “ERS12561746” for “ERS12561809”; settings: 2 µM
[6] = as §1, with “WLS-010” for “Z-009”, “human” for “pig”, “ERS12561743” for “ERS12561809”; settings: 2 µM
[7] = as §1, with “WLS-006” for “Z-009”, “human” for “pig”, “ERS12561741” for “ERS12561809”; settings: 2 µM
[8] = human gut metagenome, 24 h, 2 µM; remark: listed apart in the source
[9] = as §1, with “WLS-170” for “Z-009”, “human” for “pig”, “ERS12561762” for “ERS12561809”; settings: 2 µM
[10] = as §1, with “Z-002” for “Z-009”, “rabbit” for “pig”, “ERS12561802” for “ERS12561809”; settings: 2 µM
[11] = human gut metagenome, 24 h, 2 µM; remark: listed apart in the source
[12] = as §1, with “WLS-310” for “Z-009”, “human” for “pig”, “ERS12561785” for “ERS12561809”; settings: 2 µM
[13] = human gut metagenome, 24 h, 2 µM; remark: listed apart in the source
[14] = human gut metagenome, 24 h, 2 µM; remark: listed apart in the source
[15] = human gut metagenome, 24 h, 2 µM; remark: listed apart in the source
[16] = as §1, with “WLS-098” for “Z-009”, “human” for “pig”, “ERS12561754” for “ERS12561809”; settings: 2 µM
[17] = human gut metagenome, 24 h, 2 µM; remark: listed apart in the source
[18] = human gut metagenome, 24 h, 2 µM; remark: listed apart in the source
[19] = as §1, with “WLS-220” for “Z-009”, “human” for “pig”, “ERS12561769” for “ERS12561809”; settings: 2 µM
[20] = as §1, with “WLS-240” for “Z-009”, “human” for “pig”, “ERS12561773” for “ERS12561809”; settings: 2 µM
Note: call rule not given here.

SMILES | Bacterial Biotransformation [1] | Bacterial Biotransformation [2] | Bacterial Biotransformation [3] | Bacterial Biotransformation [4] | Bacterial Biotransformation [5] | Bacterial Biotransformation [6] | Bacterial Biotransformation [7] | Bacterial Biotransformation [8] | Bacterial Biotransformation [9] | Bacterial Biotransformation [10] | Bacterial Biotransformation [11] | Bacterial Biotransformation [12] | Bacterial Biotransformation [13] | Bacterial Biotransformation [14] | Bacterial Biotransformation [15] | Bacterial Biotransformation [16] | Bacterial Biotransformation [17] | Bacterial Biotransformation [18] | Bacterial Biotransformation [19] | Bacterial Biotransformation [20]
CC(=O)OCC(=O)[C@@]1(OC(C)=O)[C@@H](C)C[C@H]2[C@@H]3C[C@H](F)C4=CC(=O)C=C[C@]4(C)[C@@]3(F)[C@@H](O)C[C@@]21C [DIFLORASONE DIACETATE] | Compound metabolized | Compound metabolized | Compound metabolized | Compound metabolized | Compound metabolized | Compound metabolized | Compound metabolized | Compound metabolized | Compound metabolized | Compound metabolized | Compound metabolized | Compound metabolized | Compound NOT metabolized | Compound metabolized | Compound metabolized | Compound metabolized | Compound metabolized | Compound metabolized | Compound metabolized | Compound metabolized
C#C[C@]1(OC(C)=O)CC[C@H]2[C@@H]3CCC4=C[C@@H](OC(C)=O)CC[C@@H]4[C@H]3CC[C@@]21C [ETHYNODIOL DIACETATE] | Compound metabolized | Compound metabolized | Compound metabolized | Compound metabolized | Compound metabolized | Compound metabolized | Compound metabolized | Compound metabolized | Compound metabolized | Compound metabolized | Compound metabolized | Compound metabolized | Compound NOT metabolized | Compound metabolized | Compound metabolized | Compound metabolized | Compound metabolized | Compound metabolized | Compound metabolized | Compound metabolized
O=C1N=C([O-])NC1(c1ccccc1)c1ccccc1.[Na+] [PHENYTOIN SODIUM] | Compound metabolized | Compound metabolized | Compound NOT metabolized | Compound metabolized | Compound NOT metabolized | Compound metabolized | Compound metabolized | Compound NOT metabolized | Compound metabolized | Compound NOT metabolized | Compound NOT metabolized | Compound metabolized | Compound NOT metabolized | Compound metabolized | Compound NOT metabolized | Compound metabolized | Compound metabolized | Compound metabolized | Compound metabolized | Compound metabolized
